Structures can show the parent of a compound that is named as a salt. Where two headings read alike, the source gives them in different places.

This assay deals with T1, recombinant human beta tryptase (Homo sapiens, UniProt P20231).
T1 construct: made in house; host or cells: yeast cells
Briefly: beta-Tryptase inhibition, chromogenic enzyme assay (substrate S2366, read at 405 nm). To be noted: Ki calculated from IC50: Ki=IC50/(1+[Substrate]/Km), 0.5 mM substrate, room temperature. It is filed as biochemical. The method in brief:
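Recombinant human beta tryptase (yeast-expressed; native lung enzyme also used), 50 ng/mL final, with 0.5 mM (2×Km) chromogenic substrate S2366; 30 min in the dark, room temperature, read at 405 nm. Compounds at 0.01-10 μM in duplicate for IC50; Ki=IC50/(1+[S]/Km).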

T1 sequence (P20231 31-275): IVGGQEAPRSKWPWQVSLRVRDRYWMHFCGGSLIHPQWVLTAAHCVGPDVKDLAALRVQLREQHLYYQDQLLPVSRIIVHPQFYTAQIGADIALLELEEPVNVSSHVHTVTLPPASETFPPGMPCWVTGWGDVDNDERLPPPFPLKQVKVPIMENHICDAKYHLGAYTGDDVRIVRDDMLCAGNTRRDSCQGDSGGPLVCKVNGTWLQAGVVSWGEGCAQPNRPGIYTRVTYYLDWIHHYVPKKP

The Ki is the dissociation constant of the complex between target and ligand, obtained from inhibition or displacement. Regarding `COCCn1cc(C(=O)N2CCC(c3ccc(F)c(CN)c3)CC2)c2cccc(C)c21` [Example 112, [4-(3-Aminomethyl-4-fluoro-phenyl)-piperidin-1-yl]-[1-(2-methoxy-ethyl)-7-methyl-1H-indol-3-yl]-methanone hydrochloride], for the setting “Tryptase Ki (nM)”, the inhibition constant (Ki) is 998 nM.
Consider `NCc1ccc(F)c(C2CCN(C(=O)c3cn(CCOC(F)(F)F)c4cccc(Br)c34)CC2)c1` [Example 79, 4-(5-Aminomethyl-2-fluoro-phenyl)-piperidin-1-yl]-[4-bromo-1-(2-trifluoromethoxy-ethyl)-1H-indol-3-yl]-methanone hydrochloride], for which the inhibition constant (Ki) (Tryptase Ki (nM)) was 935 nM.
Still for that read-out and setting: for `COCCn1cc(C(=O)N2CCC(c3cc(CN)ccc3OCC(=O)OC)CC2)c2cccc(OC(F)(F)F)c21` [Example 24, (4-Aminomethyl-2-{1-[1-(2-methoxy-ethyl)-7-trifluoromethoxy-1H-indole-3-carbonyl]-piperidin-4-yl}-phenoxy)-acetic acid methyl ester hydrochloride] the value was 98 nM; for `COCCn1cc(C(=O)N2CCC(c3cc(CN)ccc3F)CC2)c2c(C(=O)NC3CC3)cccc21` [Example 123, 3-[4-(5-Aminomethyl-2-fluoro-phenyl)-piperidine-1-carbonyl]-1-(2-methoxy-ethyl)-1H-indole-4-carboxylic acid cyclopropylamide hydrochloride], 50 nM; for `COCCn1cc(C(=O)N2CCC(c3ccc(Cl)c(CN)c3)CC2)c2cccc(C)c21` [Example 118, [4-(3-Aminomethyl-4-chloro-phenyl)-piperidin-1-yl]-[1-(2-methoxy-ethyl)-7-methyl-1H-indol-3-yl]-methanone hydrochloride], 832 nM.
On the same count and under the same terms, for `COCCn1cc(C(=O)N2CCC(c3cc(CN)ccc3OCC(N)=O)CC2)c2cccc(C)c21` [Example 31, 2-(4-Aminomethyl-2-{1-[1-(2-methoxy-ethyl)-7-methyl-1H-indole-3-carbonyl]-piperidin-4-yl}-phenoxy)-acetamide hydrochloride] the value was 306 nM; for `COCCn1cc(C(=O)N2CCC(c3cc(CN)ccc3F)CC2)c2c(-c3cccc(F)c3)cccc21` [Example 63, [4-(5-Aminomethyl-2-fluoro-phenyl)-piperidin-1-yl]-[4-(3-fluoro-phenyl)-1-(2-methoxyethyl)-1H-indol-3-yl]-methanone hydrochloride], 46 nM.
Regarding `COCCn1cc(C(=O)N2CCC(c3cc(CN)ccc3F)CC2)c2c(-c3cccs3)cccc21` [Example 64, [4-(5-Aminomethyl-2-fluoro-phenyl)-piperidin-1-yl]-[1-(2-methoxy-ethyl)-4-thiophen-2-yl-1H-indol-3-yl]-methanone hydrochloride], the Ki (Tryptase Ki (nM)) is 39 nM.
As to `COCCn1cc(C(=O)N2CCC(c3cc(CN)ccc3F)CC2)c2c(C(=O)N3CCCCC3)cccc21` [Example 94, [4-(5-Aminomethyl-2-fluoro-phenyl)-piperidine-1-yl]-[1-(2-methoxy-ethyl)-4-(piperidine-1-carbonyl)-1H-indol-3-yl]-methanone hydrochloride], under “Tryptase Ki (nM)”, the inhibition constant (Ki) is 21 nM.
Turning to `COCCn1cc(C(=O)N2CCC(c3cc(CN)ccc3F)CC2)c2c(-c3cccnc3)cccc21` [Example 73, [4-(5-Aminomethyl-2-fluoro-phenyl)-piperidin-1-yl]-[1-(2-methoxy-ethyl)-4-pyridin-3-yl-1H-indol-3-yl]-methanone dihydrochloride], the Ki (read-out: Tryptase Ki) is 7 nM.
On to `COCCn1cc(C(=O)N2CCC(c3cc(CN)ccc3F)CC2)c2cccc(F)c21` [Example 39, [4-(5-Aminomethyl-2-fluoro-phenyl)-piperidin-1-yl]-[7-fluoro-1-(2-methoxy-ethyl)-1H-indol-3-yl]-methanone hydrochloride], for which, under “Tryptase Ki (nM)”, the Ki is 10 nM.
Take `Cc1cccc2c(C(=O)N3CCC(c4cc(CN)ccc4F)CC3)cn(CCO)c12` [Example 20, [4-(5-Aminomethyl-2-fluoro-phenyl)-piperidin-1-yl]-[1-(2-hydroxy-ethyl)-7-methyl-1H-indol-3-yl]-methanone hydrochloride]: the inhibition constant (Ki) (Tryptase Ki (nM)) was 19 nM.

The values are drawn from patent US20120245161A1 (SANOFI, priority 2009, published 2012).
